Broadly, the IC50 is the midpoint of a concentration-inhibition curve.

The text below walks through data of patent US20260191970A1, “CRBN LIGAND, PREPARATION METHOD THEREFOR, AND APPLICATION” (Shenzhen Zhongge Biological Technology Co., Ltd., priority 2023, published 2026).

The structures appear in SMILES notation. Some results are limits rather than exact numbers.

In this test the target is T1, Human Cereblon WT GST-tagged protein (Homo sapiens, UniProt Q96SW2).
T1 construct: purchased CISBIO 64BDCRBNPEG
T1 sequence (Q96SW2 whole entry): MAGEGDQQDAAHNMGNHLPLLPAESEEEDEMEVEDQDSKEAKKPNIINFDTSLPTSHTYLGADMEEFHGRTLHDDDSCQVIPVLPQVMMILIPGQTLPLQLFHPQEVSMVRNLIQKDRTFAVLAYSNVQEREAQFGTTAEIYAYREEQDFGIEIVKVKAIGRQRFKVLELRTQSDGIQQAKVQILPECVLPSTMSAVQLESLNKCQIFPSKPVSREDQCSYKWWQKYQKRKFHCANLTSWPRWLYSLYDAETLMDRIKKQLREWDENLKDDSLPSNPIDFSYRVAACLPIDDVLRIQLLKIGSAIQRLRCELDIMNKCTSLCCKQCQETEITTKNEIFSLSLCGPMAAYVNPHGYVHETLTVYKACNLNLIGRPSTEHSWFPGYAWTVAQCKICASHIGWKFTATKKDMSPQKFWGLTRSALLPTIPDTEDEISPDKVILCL
Description: CRBN binding assay (HTRF method). The conditions noted are these: competition with Thalidomide-Red, 25° C. 1 h. The method, then:
In this experiment, the binding interaction between compounds and CRBN was detected, and based on the IC50 values, the affinity of the compounds for the CRBN target was evaluated.
The affinity of the compounds for CRBN was detected using CEREBLON BINDING KITS (CISBIO, 64 BDCRBNPEG) containing diluent #9, Human Cereblon WT GST-tagged protein, GST Eu Cryptate Antibody, and Thalidomide-Red.
20 nL of each of the compounds was transferred to a 384-well plate (PerkinElmer, 6007299) using an Ehco650 apparatus (Beckman, 650). 5 μL of 1× diluent #9 (CISBIO, 64BDCRBNPEG) was added to the 384-well plate, and then 5 μL of 1× Human Cereblon WT GST-tagged protein (CISBIO, 64BDCRBNPEG) was added. The plate was sealed with a plate sealer, shaken on a plate shaker (Kylin-Bell, MH-2) for 10 s, centrifuged at 1000 rpm for 1 min, and incubated at 25° C. for 5 min. 5 μL of 1×GST Eu Cryptate Antibody (CISBIO, 64BDCRBNPEG) and 5 μL of 1× Thalidomide-Red (CISBIO, 64BDCRBNPEG) were added to the 384-well plate. The plate was sealed with a plate sealer, shaken for 30 s, centrifuged at 1000 rpm for 1 min, and incubated at 25° C. for 1 h. The signals at 665 nm and 620 nm were measured using Envision (PerkinElmer, 2105-0020).
The IC50 values for compound activity were calculated using Graphpad Prism9 software based on the compound concentrations and the ratio of the signals at 665 nm and 620 nm. Calculation formula: […]
Consider `CC/C(NC1CCC(=O)NC1=O)=C1/C(=O)N(C)c2ccc(N)cc21` (single isomer, unassigned) [Compound 6-A], for which the IC50 is not above 2000 nM. For `C/C(NC1CCC(=O)NC1=O)=C1/C(=O)N(C)c2ccc(N)cc21` (stereo not shown) [Compound 4] the value was 2000 to 5000 nM; for `CC/C(NC1CCC(=O)NC1=O)=C1/C(=O)N(C)c2ccc(N)cc21` (racemic) [Compound 6], not above 2000 nM. Consider `C/C(NC1CCC(=O)NC1=O)=C1/C(=O)Nc2ccc(Br)cc21` (stereo not shown) [Compound 1], for which the IC50 was not above 2000 nM.
